Measurements from patent US6784137B2, “6-aryl-4-aminopicolinates and their use as herbicides” (Dow AgroSciences LLC, priority 2001, dated 2004).
Read-outs that look alike come from different tables or passages of the source.

What was measured:
[1] = system: Barnyardgrass (Echinochloa crus-galli); experiment: Postemergence herbicidal activity, greenhouse spray; format: in vivo; settings: visual score after 2 weeks; for pest or weed control at 500 ppm / pest or weed control at 125 ppm: Echinochloa crus-galli, post-emergence, 336 h, read-out: Post-emergent % control ECHCG
Protocol: (§1) When required to ensure good germination and healthy plants, a fungicide treatment and/or other chemical or physical treatment was applied. The plants were grown for 7-21 days in a greenhouse with an approximate 15 hr photoperiod which was maintained at about 23-29° C. during the day and 22-28° C. during the night. Nutrients and water were added on a regular basis and supplemental lighting was provided with overhead metal halide 1000-Watt lamps as necessary. The plants were employed for testing when they reached the first or second true leaf stage. A weighed amount, determined by the highest rate to be tested, of each test compound was placed in a 20 mL glass vial and was dissolved in 4 mL of a 97:3 v/v (volume/volume) mixture of acetone and dimethyl sulfoxide (DMSO) to obtain concentrated stock solutions. […] The concentrated stock solutions obtained were diluted with an aqueous mixture containing acetone, water, isopropyl alcohol, DMSO, At plus 411 F crop oil concentrate, and Triton X-155 surfactant in a 48.5:39:10:1.5:1.0:0.02 v/v ratio to obtain spray solutions of known concentration. The solutions containing the highest concentration to be tested were prepared by diluting 2 mL aliquots of the stock solution with 13 mL of the mixture and lower concentrations were prepared by serial dilution of the stock solution. Approximately 1.5 mL aliquots of each solution of known concentration were sprayed evenly onto each of the test plant pots using a DeVilbiss atomizer driven by compressed air pressure of 2 to 4 psi (140 to 280 kiloPascals) to obtain thorough coverage of each plant. Control plants were sprayed in the same manner with the aqueous mixture. […] The treated plants and control plants were placed in a greenhouse as described above and watered by sub-irrigation to prevent wash-off of the test compounds.

[2] = system: Lambsquarter (Chenopodium album); experiment: as above; format: in vivo; settings: visual score after 2 weeks; for pest or weed control at 500 ppm / pest or weed control at 125 ppm: Chenopodium album, post-emergence, 336 h, read-out: Post-emergent % control CHEAL
Protocol: as §1

[3] = system: Cocklebur (Xanthium strumarium); experiment: as above; format: in vivo; settings: visual score after 2 weeks; for pest or weed control at 500 ppm / pest or weed control at 125 ppm: Xanthium strumarium, post-emergence, 336 h, read-out: Post-emergent % control XANST
Protocol: as §1

[4] = system: Yellow nutsedge (Cyperus esculentus); experiment: as above; format: in vivo; settings: visual score after 2 weeks; for pest or weed control at 500 ppm / pest or weed control at 125 ppm: Cyperus, post-emergence, 336 h, read-out: Post-emergent % control CYPES
Protocol: as §1

[5] = Table 1, rate 500 ppm, 0 no injury, 100 complete kill

## Nc1c(F)c(C(=O)O)nc(-c2ccc(Cl)cc2F)c1F [Compound 206, 4-Amino-3,5-difluoro-6-(4-chloro-2-fluorophenyl)pyridine-2-carboxylic acid]
[1]; Table 1, rate 500 ppm
  pest or weed control at 500 ppm: 85%
[2]; Table 1, rate 500 ppm
  pest or weed control at 500 ppm: 95%
[3]; [5]
  pest or weed control at 500 ppm: 99%
[4]; Table 1, rate 500 ppm
  pest or weed control at 500 ppm: 70%
other
  melting point: 155 to 156 °C

## Nc1c(F)c(C(=O)O)nc(-c2ccc(C(F)(F)F)cc2)c1F [Compound 200, 4-Amino-3,5-fluoro-6-(4-(trifluoromethyl)phenyl)pyridine-2-carboxylic acid]
[1]; Table 1, rate 500 ppm
  Post-emergent % control ECHCG: 95%
[1]; Table 2, rate 125 ppm
  Post-emergent % control ECHCG: 70%
[2]; Table 1, rate 500 ppm
  Post-emergent % control CHEAL: 95%
[2]; Table 2, rate 125 ppm
  Post-emergent % control CHEAL: 80%
[3]; [5]
  Post-emergent % control XANST: 100%
[3]; Table 2, rate 125 ppm
  Post-emergent % control XANST: 90%
[4]; Table 1, rate 500 ppm
  Post-emergent % control CYPES: 90%
[4]; Table 2, rate 125 ppm
  Post-emergent % control CYPES: 90%

## Nc1cc(-c2cc3ccccc3s2)nc(C(=O)O)c1Cl [Compound 224, 4-Amino-3-chloro-6-(2-benzothienyl)pyridine-2-carboxylic acid]
[1]; Table 1, rate 125 ppm
  pest or weed control at 125 ppm: 85%
[2]; Table 1, rate 125 ppm
  pest or weed control at 125 ppm: 100%
[3]; Table 1, rate 125 ppm
  pest or weed control at 125 ppm: 100%
[4]; Table 1, rate 125 ppm
  pest or weed control at 125 ppm: 30%
other
  melting point: 176 °C

## Nc1cc(-c2ccc(Cl)s2)nc(C(=O)O)c1Cl [Compound 215, 4-Amino-3-chloro-6-(5-chloro-2-thienyl)pyridine-2-carboxylic acid]
[1]; Table 1, rate 125 ppm
  pest or weed control at 125 ppm: 70%
[2]; Table 1, rate 125 ppm
  pest or weed control at 125 ppm: 100%
[3]; Table 1, rate 125 ppm
  pest or weed control at 125 ppm: 100%
[4]; Table 1, rate 125 ppm
  pest or weed control at 125 ppm: 70%
other
  melting point: 178 to 179 °C

## Nc1cc(-c2ccc(Cl)nc2)nc(C(=O)O)c1Cl [Compound 225, 4-Amino-3-chloro-6-(6-chloro-3-pyridinyl)pyridine-2-carboxylic acid]
[1]; Table 1, rate 125 ppm
  pest or weed control at 125 ppm: 40%
[2]; Table 1, rate 125 ppm
  pest or weed control at 125 ppm: 70%
[3]; Table 1, rate 125 ppm
  pest or weed control at 125 ppm: 90%
[4]; Table 1, rate 125 ppm
  pest or weed control at 125 ppm: 60%
other
  melting point: 110 to 114 °C

## COC(=O)c1nc(-c2ccc(Cl)s2)cc(N)c1Cl [Compound 98, Methyl 4-amino-3-chloro-6-(5-chloro-2-thienyl)pyridine-2-carboxylate]
[1]; Table 1, rate 125 ppm
  pest or weed control at 125 ppm: 50%
[2]; Table 1, rate 125 ppm
  pest or weed control at 125 ppm: 90%
[3]; Table 1, rate 125 ppm
  pest or weed control at 125 ppm: 90%
[4]; Table 1, rate 125 ppm
  pest or weed control at 125 ppm: 70%

## COC(=O)c1nc(-c2ccc(C)nn2)cc(N)c1Cl [Compound 121, Methyl 4-amino-3-chloro-6-(3-(6-methyl)pyridazinyl)pyridine-2-carboxylate]
[1]; Table 2, rate 125 ppm
  Post-emergent % control ECHCG: 80%
[2]; Table 2, rate 125 ppm
  Post-emergent % control CHEAL: 90%
[3]; Table 2, rate 125 ppm
  Post-emergent % control XANST: 100%
[4]; Table 2, rate 125 ppm
  Post-emergent % control CYPES: 80%

## Nc1c(Cl)c(C(=O)O)nc(-c2ccc(C(F)(F)F)cc2)c1Cl [Compound 171, 4-Amino-3′,5-dichloro-6-[4-(trifluoromethyl)phenyl]pyridine-2-carboxylic acid]
[1]; Table 1, rate 500 ppm
  Post-emergent % control ECHCG: 80%
[2]; Table 1, rate 500 ppm
  Post-emergent % control CHEAL: 95%
[3]; [5]
  Post-emergent % control XANST: 100%
[4]; Table 1, rate 500 ppm
  Post-emergent % control CYPES: 60%

## COC(=O)c1nc(-c2cc(Cl)c(C)cc2F)cc(N)c1Cl [Compound 79, Methyl 4-amino-3-chloro-6-(5-chloro-2-fluoro-4-methylphenyl)pyridine-2-carboxylate]
other
  melting point: 108 to 110 °C

## Nc1cc(-c2ccc(Cl)cc2C(F)(F)F)nc(C(=O)O)c1Cl [Compound 182, 4-Amino-3-chloro-6-(4-chloro-2-(trifluoromethyl)phenyl)pyridine-2-carboxylic acid]
other
  melting point: 178 to 180 °C

## CCCCCCCCCCOC(=O)c1nc(-c2ccc(Cl)cc2)c(F)c(N)c1Cl [Compound 244, Decyl 4-amino-3-chloro-5-fluoro-6-(4-chlorophenyl)pyridine-2-carboxylate]
other
  melting point: 62 to 63 °C

## COC(=O)c1nc(-c2ccc(OC)c(OC)c2)cc(N)c1Cl [Compound 64, Methyl 4-amino-3-chloro-6-(3,4-dimethoxyphenyl)pyridine-2-carboxylate]
other
  melting point: 126 to 127 °C

## COC(=O)c1nc(-c2cncnc2)cc(N)c1Cl [Compound 126, Methyl 4-amino-3-chloro-6-(5-pyrimidinyl)pyridine-2-carboxylate]
other
  melting point: 195 °C

## COC(=O)c1nc(-c2ccccc2F)cc(N)c1Cl [Compound 33, Methyl 4-amino-3-chloro-6-(2-fluorophenyl)pyridine-2-carboxylate]
[1]; Table 1, rate 500 ppm
  pest or weed control at 500 ppm: 30%
[2]; Table 1, rate 500 ppm
  pest or weed control at 500 ppm: 100%
[3]; [5]
  pest or weed control at 500 ppm: 100%
[4]; Table 1, rate 500 ppm
  pest or weed control at 500 ppm: 10%

## COC(=O)c1nc(-c2ccc(F)cc2Cl)cc(NC(C)=O)c1Cl [Compound 54, Methyl 4-acetamido-3-chloro-6-(2-chloro-4-fluorophenyl)pyridine-2-carboxylate]
other
  melting point: 162 to 163 °C

## COC(=O)c1nc(-c2ccc(C=O)cc2)cc(N)c1Cl [Compound 41, Methyl 4-amino-3-chloro-6-(4-formylphenyl)pyridine-2-carboxylate]
other
  melting point: 106 to 108 °C

## COC(=O)c1nc(-c2ccc(Cl)c(C)c2)cc(N)c1Cl [Compound 38, Methyl 4-amino-3-chloro-6-(4-chloro-3-methylphenyl)pyridine-2-carboxylate]
other
  melting point: 155 to 156 °C

## CCCCOCCOC(=O)c1nc(-c2ccc(Cl)cc2)c(F)c(N)c1Cl [Compound 245, 2-Butoxyethyl 4-amino-3-chloro-5-fluoro-6-(4-chlorophenyl)pyridine-2-carboxylate]
other
  melting point: 103 to 104 °C

## COCc1cc(-c2cc(NC(C)=O)c(Cl)c(C(=O)OC)n2)ccc1Cl [Compound 70, Methyl 4-acetamido-3-chloro-6-(4-chloro-3-methoxymethylphenyl)pyridine-2-carboxylate]
other
  melting point: 120 to 122 °C

## Nc1cc(-c2ccc(OC(F)(F)F)cc2)nc(C(=O)O)c1Cl [Compound 174, 4-Amino-3-chloro-6-[4-(trifluoromethoxy)phenyl]pyridine-2-carboxylic acid]
other
  melting point: 164 to 165 °C

## Nc1c(F)c(-c2ccc(Cl)cc2)nc(C(=O)O)c1Cl [Compound 183, 4-Amino-3-chloro-5-fluoro-6-(4-chlorophenyl)pyridine-2-carboxylic acid]
[1]; Table 2, rate 125 ppm
  pest or weed control at 125 ppm: 100%
[2]; Table 2, rate 125 ppm
  pest or weed control at 125 ppm: 100%
[3]; Table 2, rate 125 ppm
  pest or weed control at 125 ppm: 100%
[4]; Table 2, rate 125 ppm
  pest or weed control at 125 ppm: 100%

## COc1ccc(-c2cc(N)c(Cl)c(C(=O)O)n2)cn1 [Compound 213, 4-Amino-3-chloro-6-(6-methoxy-3-pyridinyl)pyridine-2-carboxylic acid]
other
  melting point: 110 °C (dec.)

## COC(=O)c1nc(-c2cccs2)c(Cl)c(N)c1Cl [Compound 105, Methyl 4-amino-3,5-dichloro-6-(2-thienyl)pyridine-2-carboxylate]
other
  melting point: 132 °C

## COC(=O)c1nc(-c2nccs2)c(F)c(N)c1Cl [Compound 113, Methyl 4-amino-3-chloro-5-fluoro-6-(2-thiazolyl)pyridine-2-carboxylate]
other
  melting point: 185 to 187 °C

## COc1ncc(-c2cc(N)c(Cl)c(C(=O)O)n2)cn1 [Compound 239, 4-Amino-3-chloro-6-(2-methoxy-5-pyrimidinyl)pyridine-2-carboxylic acid]
other
  melting point: 153 °C

## COc1ccc(-c2nc(C(=O)O)c(Cl)c(N)c2Cl)cc1 [Compound 134, 4-Amino-3,5-dichloro-6-(4-methoxyphenyl)pyridine-2-carboxylic acid]
other
  melting point: 139 to 140 °C (dec.)

## COC(=O)c1nc(-c2ccc3c(c2)CCO3)cc(N)c1Cl [Compound 77, Methyl 4-amino-3-chloro-6-(2,3-dihydro-5-benzofuranyl)pyridine-2-carboxylate]
other
  melting point: 143 °C

## Nc1cc(-c2ccc(F)cc2)nc(C(=O)O)c1Cl [Compound 156, 4-Amino-3-chloro-6-(4-fluorophenyl)pyridine-2-carboxylic acid]
other
  melting point: 170 to 171 °C
